# Source: ChEMBL document CHEMBL5038650, “In Vitro and In Vivo Inhibition of the Mycobacterium tuberculosis Phosphopantetheinyl Transferase PptT by Amidinoureas” (J Med Chem, 2022)
# Biological target: Voltage-gated inwardly rectifying potassium channel KCNH2 (Homo sapiens, UniProt Q12809)
# Sequence (Q12809 whole entry): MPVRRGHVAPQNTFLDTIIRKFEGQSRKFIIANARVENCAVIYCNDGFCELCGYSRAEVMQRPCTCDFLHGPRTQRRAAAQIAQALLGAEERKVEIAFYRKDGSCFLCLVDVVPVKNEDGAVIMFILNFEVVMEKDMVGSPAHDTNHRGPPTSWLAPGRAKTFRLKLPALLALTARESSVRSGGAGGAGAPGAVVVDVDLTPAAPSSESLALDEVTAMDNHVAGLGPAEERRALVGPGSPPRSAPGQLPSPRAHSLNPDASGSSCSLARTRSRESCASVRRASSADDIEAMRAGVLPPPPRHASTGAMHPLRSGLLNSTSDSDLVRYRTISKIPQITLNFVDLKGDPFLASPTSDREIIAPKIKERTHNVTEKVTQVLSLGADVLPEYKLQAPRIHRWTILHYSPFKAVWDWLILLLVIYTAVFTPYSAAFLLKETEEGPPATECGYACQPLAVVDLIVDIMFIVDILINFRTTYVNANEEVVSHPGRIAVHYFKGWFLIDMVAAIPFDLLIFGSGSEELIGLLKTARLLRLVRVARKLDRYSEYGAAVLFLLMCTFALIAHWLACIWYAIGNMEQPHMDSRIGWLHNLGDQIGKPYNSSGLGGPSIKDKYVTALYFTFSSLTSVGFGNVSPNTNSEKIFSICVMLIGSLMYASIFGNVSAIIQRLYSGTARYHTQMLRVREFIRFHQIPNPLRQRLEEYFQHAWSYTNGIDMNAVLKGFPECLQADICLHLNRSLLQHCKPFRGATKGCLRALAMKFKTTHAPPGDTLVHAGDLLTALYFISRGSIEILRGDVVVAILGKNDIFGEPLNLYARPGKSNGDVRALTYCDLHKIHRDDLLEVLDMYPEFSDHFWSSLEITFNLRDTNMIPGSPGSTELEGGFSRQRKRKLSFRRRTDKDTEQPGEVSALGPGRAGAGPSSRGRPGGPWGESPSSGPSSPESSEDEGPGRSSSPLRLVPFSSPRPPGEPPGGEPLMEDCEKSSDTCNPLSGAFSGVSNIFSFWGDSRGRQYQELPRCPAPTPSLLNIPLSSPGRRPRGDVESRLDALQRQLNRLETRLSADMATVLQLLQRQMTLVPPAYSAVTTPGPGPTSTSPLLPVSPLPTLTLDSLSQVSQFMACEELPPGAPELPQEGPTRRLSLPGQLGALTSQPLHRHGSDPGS
# Description: Inhibition of hERG expressed in HEK cells by patch clamp method
row,SMILES,IC50 [µM]
1,CCNC(=N)NC(=O)Nc1c(CC)cc(C(=O)NCc2ccccc2)cc1CC,> 30
2,CCNC(=N)NC(=O)Nc1c(CC)cc(S(=O)(=O)NCC)cc1CC,> 30
3,CCNC(=N)NC(=O)Nc1c(CC)cc(NS(=O)(=O)c2ccccc2)cc1CC,> 30
4,CCNC(=N)NC(=O)Nc1c(CC)cc(C(=O)NC(C)C)cc1CC,> 30
